Laboratory results as given in paper PMC11167047 (Cell Death Discovery, 2024).

Tests used:
Test in all cases: kinome screen (33PanQinase)
Format in all cases: biochemical
TYK2 = target: T1, TYK2 (Homo sapiens, UniProt P29597)
T1 construct: purchased Reaction Biology Europe GmbH (formerly ProQinase)
Description: (§1) The Kinome Screening was performed by Reaction Biology Europe GmbH (http://reactionbiology.com; Freiburg i. Br., Germany).

BRAF = target: T2, BRAF (Homo sapiens, UniProt P15056)
T2 construct: purchased Reaction Biology Europe GmbH (formerly ProQinase)
Description: as §1

SAK = target: T3, SAK (Homo sapiens, UniProt O00444)
T3 construct: purchased Reaction Biology Europe GmbH (formerly ProQinase)
T3 sequence (O00444 1-970): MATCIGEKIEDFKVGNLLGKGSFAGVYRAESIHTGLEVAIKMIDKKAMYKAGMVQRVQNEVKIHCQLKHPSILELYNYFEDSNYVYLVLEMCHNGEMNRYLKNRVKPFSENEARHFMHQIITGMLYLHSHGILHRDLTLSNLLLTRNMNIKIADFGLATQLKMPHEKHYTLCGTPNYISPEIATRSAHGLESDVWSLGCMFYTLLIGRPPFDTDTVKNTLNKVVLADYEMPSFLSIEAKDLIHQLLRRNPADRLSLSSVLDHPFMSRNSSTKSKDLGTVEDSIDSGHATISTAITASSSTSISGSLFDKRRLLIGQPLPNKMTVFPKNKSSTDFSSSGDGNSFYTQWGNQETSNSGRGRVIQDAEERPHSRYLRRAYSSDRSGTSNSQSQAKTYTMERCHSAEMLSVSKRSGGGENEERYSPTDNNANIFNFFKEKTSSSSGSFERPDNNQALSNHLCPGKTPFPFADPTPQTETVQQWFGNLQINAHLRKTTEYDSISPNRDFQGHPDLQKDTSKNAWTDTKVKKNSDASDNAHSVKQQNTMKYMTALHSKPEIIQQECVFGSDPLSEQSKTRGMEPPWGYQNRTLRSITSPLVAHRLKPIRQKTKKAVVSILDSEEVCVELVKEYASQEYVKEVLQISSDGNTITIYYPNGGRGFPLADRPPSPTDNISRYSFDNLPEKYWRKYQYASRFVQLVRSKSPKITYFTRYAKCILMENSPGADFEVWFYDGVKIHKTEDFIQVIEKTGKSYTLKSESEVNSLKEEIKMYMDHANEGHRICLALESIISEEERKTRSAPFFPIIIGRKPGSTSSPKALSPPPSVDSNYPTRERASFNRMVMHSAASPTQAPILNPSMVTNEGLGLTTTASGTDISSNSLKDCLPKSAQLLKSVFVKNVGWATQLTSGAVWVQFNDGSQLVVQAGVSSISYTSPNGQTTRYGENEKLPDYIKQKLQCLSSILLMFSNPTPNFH
Description: as §1

VEGFR1 = target: T4, VEGFR1 (Homo sapiens, UniProt P17948)
T4 construct: purchased Reaction Biology Europe GmbH (formerly ProQinase)
Description: as §1

CDK6/CycD3 = target: T5, CDK6/CycD3 (Homo sapiens, UniProt Q00534)
T5 construct: purchased Reaction Biology Europe GmbH (formerly ProQinase)
Description: as §1

ABL1 = target: T6, ABL1 (Homo sapiens, UniProt P00519)
T6 construct: purchased Reaction Biology Europe GmbH (formerly ProQinase)
Description: as §1

CAMKK1 = target: T7, CAMKK1 (Homo sapiens, UniProt Q8N5S9)
T7 construct: purchased Reaction Biology Europe GmbH (formerly ProQinase)
T7 sequence (Q8N5S9 whole entry): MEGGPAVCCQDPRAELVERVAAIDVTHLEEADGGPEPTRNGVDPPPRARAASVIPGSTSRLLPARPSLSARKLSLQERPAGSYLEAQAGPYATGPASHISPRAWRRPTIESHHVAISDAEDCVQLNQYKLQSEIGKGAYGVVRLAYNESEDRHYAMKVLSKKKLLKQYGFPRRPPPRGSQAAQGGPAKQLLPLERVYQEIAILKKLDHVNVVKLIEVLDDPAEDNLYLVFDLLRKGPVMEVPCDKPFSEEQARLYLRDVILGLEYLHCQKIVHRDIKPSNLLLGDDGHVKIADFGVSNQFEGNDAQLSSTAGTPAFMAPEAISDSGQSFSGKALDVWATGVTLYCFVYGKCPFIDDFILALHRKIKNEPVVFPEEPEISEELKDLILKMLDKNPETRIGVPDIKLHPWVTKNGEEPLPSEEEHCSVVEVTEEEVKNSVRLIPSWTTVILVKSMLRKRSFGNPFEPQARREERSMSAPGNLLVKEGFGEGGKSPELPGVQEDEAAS
Description: as §1

GRK2 = target: T8, GRK2 (Homo sapiens, UniProt P25098)
T8 construct: purchased Reaction Biology Europe GmbH (formerly ProQinase)
T8 sequence (P25098 1-689): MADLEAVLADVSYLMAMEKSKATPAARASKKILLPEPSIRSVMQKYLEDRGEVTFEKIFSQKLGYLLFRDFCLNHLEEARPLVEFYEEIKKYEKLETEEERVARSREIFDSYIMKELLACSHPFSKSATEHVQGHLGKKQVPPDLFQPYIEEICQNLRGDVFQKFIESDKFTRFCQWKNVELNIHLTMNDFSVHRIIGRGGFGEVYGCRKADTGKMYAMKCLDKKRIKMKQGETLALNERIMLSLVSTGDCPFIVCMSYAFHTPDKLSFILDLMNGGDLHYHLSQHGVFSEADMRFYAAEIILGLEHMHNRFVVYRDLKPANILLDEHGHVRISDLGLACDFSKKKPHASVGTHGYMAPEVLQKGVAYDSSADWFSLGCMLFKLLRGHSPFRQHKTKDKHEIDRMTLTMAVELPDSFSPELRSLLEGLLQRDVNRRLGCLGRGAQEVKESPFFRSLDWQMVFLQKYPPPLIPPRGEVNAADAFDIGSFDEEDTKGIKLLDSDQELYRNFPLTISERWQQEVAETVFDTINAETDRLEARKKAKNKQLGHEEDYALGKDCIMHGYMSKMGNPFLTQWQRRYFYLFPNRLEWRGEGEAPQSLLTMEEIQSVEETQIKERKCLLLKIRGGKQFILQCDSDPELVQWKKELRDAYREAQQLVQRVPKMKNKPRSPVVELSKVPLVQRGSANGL
Description: as §1

SIK3 = target: T9, SIK3 (Homo sapiens, UniProt Q9Y2K2)
T9 construct: purchased Reaction Biology Europe GmbH (formerly ProQinase)
Description: as §1

GRK6 = target: T10, GRK6 (Homo sapiens, UniProt P43250)
T10 construct: purchased Reaction Biology Europe GmbH (formerly ProQinase)
Description: as §1

VEGFR2 = target: T11, VEGFR2 (Homo sapiens, UniProt P35968)
T11 construct: purchased Reaction Biology Europe GmbH (formerly ProQinase)
Description: as §1

INSRR = target: T12, INSRR (Homo sapiens, UniProt P14616)
T12 construct: purchased Reaction Biology Europe GmbH (formerly ProQinase)
Description: as §1

PKCα = target: T13, PKCα (Homo sapiens, UniProt P17252)
T13 construct: purchased Reaction Biology Europe GmbH (formerly ProQinase)
Description: as §1

DYRK1B = target: T14, DYRK1B (Homo sapiens, UniProt Q9Y463)
T14 construct: purchased Reaction Biology Europe GmbH (formerly ProQinase)
T14 sequence (Q9Y463 whole entry): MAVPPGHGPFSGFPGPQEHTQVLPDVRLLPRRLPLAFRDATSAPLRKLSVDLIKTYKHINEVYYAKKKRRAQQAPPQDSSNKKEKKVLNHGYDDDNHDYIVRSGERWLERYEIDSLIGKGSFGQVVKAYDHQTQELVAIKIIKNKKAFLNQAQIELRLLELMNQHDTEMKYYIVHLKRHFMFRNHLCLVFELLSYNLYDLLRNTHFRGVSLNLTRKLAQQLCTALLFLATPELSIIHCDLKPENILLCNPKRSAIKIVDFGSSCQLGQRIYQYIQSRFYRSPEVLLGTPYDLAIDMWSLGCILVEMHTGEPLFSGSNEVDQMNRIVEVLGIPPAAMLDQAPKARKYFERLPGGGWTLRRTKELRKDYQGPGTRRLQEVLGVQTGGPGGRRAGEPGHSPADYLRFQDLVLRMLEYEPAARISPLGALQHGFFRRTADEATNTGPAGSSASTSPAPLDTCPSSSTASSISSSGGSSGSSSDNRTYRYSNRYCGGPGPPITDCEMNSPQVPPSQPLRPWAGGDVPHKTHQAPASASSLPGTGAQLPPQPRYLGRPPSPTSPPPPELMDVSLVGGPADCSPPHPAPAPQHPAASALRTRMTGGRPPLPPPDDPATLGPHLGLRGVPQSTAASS
Description: as §1

YES = target: T15, YES (Homo sapiens, UniProt P07947)
T15 construct: purchased Reaction Biology Europe GmbH (formerly ProQinase)
T15 sequence (P07947 whole entry): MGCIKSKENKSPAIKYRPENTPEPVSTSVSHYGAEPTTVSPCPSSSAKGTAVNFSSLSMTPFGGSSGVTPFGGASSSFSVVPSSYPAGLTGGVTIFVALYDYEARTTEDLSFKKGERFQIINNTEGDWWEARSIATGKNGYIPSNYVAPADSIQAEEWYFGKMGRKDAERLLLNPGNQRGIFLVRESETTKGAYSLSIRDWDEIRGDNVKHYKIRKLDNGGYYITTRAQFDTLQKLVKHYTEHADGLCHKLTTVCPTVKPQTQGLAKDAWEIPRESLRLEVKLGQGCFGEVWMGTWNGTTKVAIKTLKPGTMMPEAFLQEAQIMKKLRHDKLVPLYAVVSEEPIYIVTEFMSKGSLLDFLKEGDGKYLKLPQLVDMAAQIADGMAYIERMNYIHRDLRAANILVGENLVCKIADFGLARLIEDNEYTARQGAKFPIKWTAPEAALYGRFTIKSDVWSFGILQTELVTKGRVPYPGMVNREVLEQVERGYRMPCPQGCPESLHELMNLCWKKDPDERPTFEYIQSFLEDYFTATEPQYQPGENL
Description: as §1

EPHA7 = target: T16, EPHA7 (Homo sapiens, UniProt Q15375)
T16 construct: purchased Reaction Biology Europe GmbH (formerly ProQinase)
T16 sequence (Q15375 28-998): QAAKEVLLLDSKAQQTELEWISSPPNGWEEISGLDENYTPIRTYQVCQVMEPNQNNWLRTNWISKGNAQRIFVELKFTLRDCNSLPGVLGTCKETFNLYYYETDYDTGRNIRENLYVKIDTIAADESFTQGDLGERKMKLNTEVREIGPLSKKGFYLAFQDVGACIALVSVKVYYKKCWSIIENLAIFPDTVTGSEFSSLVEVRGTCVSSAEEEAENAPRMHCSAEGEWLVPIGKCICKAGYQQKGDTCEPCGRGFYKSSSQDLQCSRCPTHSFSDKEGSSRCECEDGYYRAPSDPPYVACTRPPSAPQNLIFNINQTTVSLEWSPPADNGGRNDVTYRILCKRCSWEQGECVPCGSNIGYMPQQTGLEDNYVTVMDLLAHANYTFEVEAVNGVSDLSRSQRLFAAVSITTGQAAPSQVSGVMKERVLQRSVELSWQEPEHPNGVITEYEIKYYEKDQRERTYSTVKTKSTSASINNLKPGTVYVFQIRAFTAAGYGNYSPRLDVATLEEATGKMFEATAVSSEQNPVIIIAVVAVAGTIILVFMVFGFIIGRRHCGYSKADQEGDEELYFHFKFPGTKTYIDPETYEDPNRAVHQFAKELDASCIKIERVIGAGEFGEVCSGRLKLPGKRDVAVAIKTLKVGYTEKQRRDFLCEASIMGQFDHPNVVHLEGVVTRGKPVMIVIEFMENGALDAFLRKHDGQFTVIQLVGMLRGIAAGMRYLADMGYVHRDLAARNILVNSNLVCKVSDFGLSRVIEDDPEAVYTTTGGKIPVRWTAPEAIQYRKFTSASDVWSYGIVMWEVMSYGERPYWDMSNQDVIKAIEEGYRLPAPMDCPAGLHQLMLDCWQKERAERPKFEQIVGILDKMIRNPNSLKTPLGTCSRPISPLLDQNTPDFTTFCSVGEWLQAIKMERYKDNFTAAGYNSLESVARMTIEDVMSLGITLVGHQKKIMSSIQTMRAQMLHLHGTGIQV
Description: as §1

T1 sequence (P29597 whole entry): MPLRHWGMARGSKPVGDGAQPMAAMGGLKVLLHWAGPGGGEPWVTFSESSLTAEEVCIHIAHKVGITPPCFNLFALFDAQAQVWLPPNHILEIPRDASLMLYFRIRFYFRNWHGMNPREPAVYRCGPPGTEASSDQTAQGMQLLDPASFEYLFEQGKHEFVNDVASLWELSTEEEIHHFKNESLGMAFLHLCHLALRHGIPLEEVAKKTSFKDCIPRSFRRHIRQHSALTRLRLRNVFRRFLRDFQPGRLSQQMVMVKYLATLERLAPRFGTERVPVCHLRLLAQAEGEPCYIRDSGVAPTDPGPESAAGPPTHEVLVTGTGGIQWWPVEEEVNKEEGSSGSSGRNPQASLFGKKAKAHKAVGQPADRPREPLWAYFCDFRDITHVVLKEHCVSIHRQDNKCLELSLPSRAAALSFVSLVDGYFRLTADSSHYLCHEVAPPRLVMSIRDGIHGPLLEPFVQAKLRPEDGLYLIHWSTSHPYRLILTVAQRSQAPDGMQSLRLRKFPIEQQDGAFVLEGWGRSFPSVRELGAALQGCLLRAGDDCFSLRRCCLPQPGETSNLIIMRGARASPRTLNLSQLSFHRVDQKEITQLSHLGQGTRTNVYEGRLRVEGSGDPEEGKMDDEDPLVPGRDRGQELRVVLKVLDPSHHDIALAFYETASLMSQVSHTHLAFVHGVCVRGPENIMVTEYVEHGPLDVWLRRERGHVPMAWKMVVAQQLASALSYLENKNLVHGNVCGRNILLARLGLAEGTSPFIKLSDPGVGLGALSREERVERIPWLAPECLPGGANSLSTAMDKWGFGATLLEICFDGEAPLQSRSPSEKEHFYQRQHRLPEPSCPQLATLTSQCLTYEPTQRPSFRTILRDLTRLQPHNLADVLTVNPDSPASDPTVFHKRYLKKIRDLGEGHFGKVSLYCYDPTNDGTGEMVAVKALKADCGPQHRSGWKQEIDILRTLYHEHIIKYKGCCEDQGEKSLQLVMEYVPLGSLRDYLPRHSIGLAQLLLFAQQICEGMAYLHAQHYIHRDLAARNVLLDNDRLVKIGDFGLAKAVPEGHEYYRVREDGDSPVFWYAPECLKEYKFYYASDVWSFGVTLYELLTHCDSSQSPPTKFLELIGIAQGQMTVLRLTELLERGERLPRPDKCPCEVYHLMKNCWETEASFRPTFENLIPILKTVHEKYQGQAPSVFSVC

Which results are given for `COc1ccnc2[nH]cc(-c3cc(N)nc(N)c3)c12` [meriolin 16]?
residual kinase activity (TYK2; 0.03 µM): 105 % of control; residual kinase activity (TYK2; 0.3 µM): 68 % of control; residual kinase activity (BRAF; 0.03 µM): 94 % of control; residual kinase activity (SAK; 0.03 µM): 97 % of control; residual kinase activity (SAK; 0.3 µM): 84 % of control; residual kinase activity (VEGFR1; 0.03 µM): 110 % of control; residual kinase activity (VEGFR1; 0.3 µM): 89 % of control; residual kinase activity (CDK6/CycD3; 0.03 µM): 88 % of control; residual kinase activity (CDK6/CycD3; 0.3 µM): 98 % of control; residual kinase activity (ABL1; 0.03 µM): 103 % of control; residual kinase activity (ABL1; 0.3 µM): 99 % of control; residual kinase activity (CAMKK1; 0.03 µM): 97 % of control; residual kinase activity (CAMKK1; 0.3 µM): 95 % of control; residual kinase activity (GRK2; 0.03 µM): 96 % of control; residual kinase activity (GRK2; 0.3 µM): 106 % of control; residual kinase activity (SIK3; 0.03 µM): 106 % of control; residual kinase activity (SIK3; 0.3 µM): 88 % of control; residual kinase activity (GRK6; 0.03 µM): 98 % of control; residual kinase activity (GRK6; 0.3 µM): 93 % of control; residual kinase activity (VEGFR2; 0.03 µM): 102 % of control; residual kinase activity (VEGFR2; 0.3 µM): 98 % of control; residual kinase activity (INSRR; 0.03 µM): 97 % of control; residual kinase activity (INSRR; 0.3 µM): 96 % of control; residual kinase activity (PKCα; 0.03 µM): 95 % of control; residual kinase activity (PKCα; 0.3 µM): 80 % of control; residual kinase activity (DYRK1B; 0.03 µM): 8 % of control; residual kinase activity (DYRK1B; 0.3 µM): 0 % of control; residual kinase activity (YES; 0.03 µM): 100 % of control; residual kinase activity (YES; 0.3 µM): 90 % of control; residual kinase activity (EPHA7; 0.03 µM): 122 % of control; residual kinase activity (EPHA7; 0.3 µM): 107 % of control

With `c1ccc(CNc2cc(-c3c[nH]c4ncccc34)ccn2)cc1` [meriolin 36] as the molecule, how does the residual kinase activity (TYK2; 0.3 µM) read?
The residual kinase activity was 6 % of control.

What about the residual kinase activity (TYK2; 3 µM) of the same molecule?
Its residual kinase activity is 1 % of control.

And the residual kinase activity (BRAF; 0.3 µM)?
Its residual kinase activity is 66 % of control.

What about the residual kinase activity (BRAF; 3 µM) of the same molecule?
Its residual kinase activity is 50 % of control.

And the residual kinase activity (SAK; 0.3 µM)?
The residual kinase activity was 53 % of control.

What about the residual kinase activity (SAK; 3 µM) of the same molecule?
The residual kinase activity was 24 % of control.

And the residual kinase activity (VEGFR1; 0.3 µM)?
The residual kinase activity was 83 % of control.

And the residual kinase activity (VEGFR1; 3 µM)?
The residual kinase activity was 43 % of control.

And the residual kinase activity (CDK6/CycD3; 0.3 µM)?
The residual kinase activity was 76 % of control.

And the residual kinase activity (CDK6/CycD3; 3 µM)?
Its residual kinase activity is 26 % of control.

What about the residual kinase activity (ABL1; 0.3 µM) of the same molecule?
The residual kinase activity was 80 % of control.

And the residual kinase activity (ABL1; 3 µM)?
The residual kinase activity was 26 % of control.

And the residual kinase activity (CAMKK1; 0.3 µM)?
Its residual kinase activity is 51 % of control.

And the residual kinase activity (CAMKK1; 3 µM)?
The residual kinase activity was 18 % of control.

What about the residual kinase activity (GRK2; 0.3 µM) of the same molecule?
The residual kinase activity was 99 % of control.

What about the residual kinase activity (GRK2; 3 µM) of the same molecule?
Its residual kinase activity is 51 % of control.

And the residual kinase activity (SIK3; 0.3 µM)?
Its residual kinase activity is 72 % of control.

And the residual kinase activity (SIK3; 3 µM)?
Its residual kinase activity is 32 % of control.

And the residual kinase activity (GRK6; 0.3 µM)?
Its residual kinase activity is 96 % of control.

And the residual kinase activity (GRK6; 3 µM)?
Its residual kinase activity is 54 % of control.

What about the residual kinase activity (VEGFR2; 0.3 µM) of the same molecule?
Its residual kinase activity is 60 % of control.

And the residual kinase activity (VEGFR2; 3 µM)?
The residual kinase activity was 19 % of control.

And the residual kinase activity (INSRR; 0.3 µM)?
The residual kinase activity was 85 % of control.

What about the residual kinase activity (INSRR; 3 µM) of the same molecule?
Its residual kinase activity is 39 % of control.

And the residual kinase activity (PKCα; 0.3 µM)?
Its residual kinase activity is 49 % of control.

And the residual kinase activity (PKCα; 3 µM)?
Its residual kinase activity is 11 % of control.

And the residual kinase activity (DYRK1B; 0.3 µM)?
Its residual kinase activity is 7 % of control.

What about the residual kinase activity (DYRK1B; 3 µM) of the same molecule?
Its residual kinase activity is 0 % of control.

What about the residual kinase activity (YES; 0.3 µM) of the same molecule?
The residual kinase activity was 65 % of control.

And the residual kinase activity (YES; 3 µM)?
Its residual kinase activity is 19 % of control.

And the residual kinase activity (EPHA7; 0.3 µM)?
The residual kinase activity was 131 % of control.

What about the residual kinase activity (EPHA7; 3 µM) of the same molecule?
Its residual kinase activity is 93 % of control.
